# Measured values from ChEMBL document CHEMBL5576038, “Design of a novel long-acting dual GLP-1/GIP receptor agonist” (Bioorg Med Chem, 2024).
# Calls of active or inactive are those of the source. The calls are words filed in the database; no cut-off is given here. Where a SMILES comes first, the peptide text is derived from it. [ ]: non-standard residue; d: D form. The star is where a group is joined. X1 = N[C@@H](CCCCNC(=O)CC[C@H](NC(=O)CCCCCCCCCCCCCCCCCCC(=O)O)C(=O)O)C(=O)NCCCC[C@H](N)C(=O)N[C@@H](CCCCNC(=O)C*)C(=O)O; X3 = O=C(O)CCCCCCCCCCCCCCCCC(=O)NCCOCCOCC(=O)N[C@@H](CCC(=O)N[C@@H](CCC(=O)N[C@@H](CCCCNC(=O)C*)C(=O)O)C(=O)O)C(=O)O; X2 = O=C(O)CCCCCCCCCCCCCCCCC(=O)NCCOCCOCC(=O)N[C@@H](CCC(=O)N[C@H](CCC(=O)N[C@H](CCCCNC(=O)C*)C(=O)O)C(=O)O)C(=O)O; Aib = CC(C)(N)C(=O)O
# Tests used:
# [1] = biological target: T1, Gastric inhibitory polypeptide receptor (Homo sapiens, UniProt P48546); assay: Agonist activity at human GIPR expressed in CHO cells assessed as increase in cAMP production incubated for 30 mins by Eu-cAMP tracer based microplate reader analysis; format: functional, cell-based
# T1 sequence (P48546 whole entry): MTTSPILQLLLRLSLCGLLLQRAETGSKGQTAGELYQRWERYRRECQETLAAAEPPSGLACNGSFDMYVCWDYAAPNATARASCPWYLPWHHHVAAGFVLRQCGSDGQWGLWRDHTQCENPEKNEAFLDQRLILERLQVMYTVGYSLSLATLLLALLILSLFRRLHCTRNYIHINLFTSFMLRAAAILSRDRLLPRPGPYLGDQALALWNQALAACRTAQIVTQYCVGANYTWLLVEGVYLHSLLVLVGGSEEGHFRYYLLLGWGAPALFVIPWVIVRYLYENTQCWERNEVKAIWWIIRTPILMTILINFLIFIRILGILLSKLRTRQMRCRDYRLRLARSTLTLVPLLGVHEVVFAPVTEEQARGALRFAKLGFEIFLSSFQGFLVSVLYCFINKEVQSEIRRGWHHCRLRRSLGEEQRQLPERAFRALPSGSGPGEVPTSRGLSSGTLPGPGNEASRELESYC
# [2] = biological target: Glucagon-like peptide 1 receptor (Homo sapiens, UniProt P43220); assay: Agonist activity at human GLP-1R expressed in CHO cells assessed as increase in cAMP production incubated for 30 mins by Eu-cAMP tracer based microplate reader analysis; format: functional, cell-based
# Chain of Glucagon-like peptide 1 receptor (P43220 whole entry): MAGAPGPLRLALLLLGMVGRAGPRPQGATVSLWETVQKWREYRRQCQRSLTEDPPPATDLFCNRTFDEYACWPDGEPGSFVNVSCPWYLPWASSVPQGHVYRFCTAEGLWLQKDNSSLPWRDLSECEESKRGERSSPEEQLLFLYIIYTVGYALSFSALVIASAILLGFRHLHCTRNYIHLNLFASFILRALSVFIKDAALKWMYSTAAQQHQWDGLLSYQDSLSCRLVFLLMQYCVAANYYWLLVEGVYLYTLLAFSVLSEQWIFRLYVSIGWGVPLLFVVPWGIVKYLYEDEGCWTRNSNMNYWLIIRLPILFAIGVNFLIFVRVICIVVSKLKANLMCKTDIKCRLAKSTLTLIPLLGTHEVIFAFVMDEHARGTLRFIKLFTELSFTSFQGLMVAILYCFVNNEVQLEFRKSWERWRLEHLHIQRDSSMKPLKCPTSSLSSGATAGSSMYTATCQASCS
# Mus musculus [3] = assay: Increase in body weight in male ICR mouse at 30 nmol/kg, sc measured after 2 days; format: functional, organism-based; details: time 2.0 day
# Mus musculus [4] = assay: Anti-obesity activity in male C57/B16 mouse model of diet-induced obesity assessed as reduction in body weight at 10 nmol/kg, sc administered every 3 days for 46 days and measured every 3 days relative to control; format: functional; parameters: scale not given: the % may be the effect or the level left
# Mus musculus [5] = assay: Hypoglycemic effect in male db/db mouse model assessed as blood glucose level at 30 nmol/kg, sc administered every 3 days for 31 days and measured 72 hrs post each dose; format: functional, organism-based; details: time 31.0 day
# Mus musculus [6] = assay: Hypoglycemic effect in male db/db mouse model assessed as reduction in body weight at 30 nmol/kg, sc administered every 3 days for 60 days and measured every 3 days; format: functional, organism-based; details: time 60.0 day
# Mus musculus [7] = assay: Hypoglycemic effect in male db/db mouse model assessed as reduction in HbA1c level at 30 nmol/kg, sc administered every 3 days for 60 days and measured on day 18, 31, 37, 52, 58 and 60 by auto-chemistry analyzer; format: functional, organism-based; details: time 60.0 day
# Mus musculus [8] = assay: Hypoglycemic effect in male db/db mouse model assessed as reduction in food intake at 30 nmol/kg, sc administered every 3 days for 60 days and measured every 3 days; format: functional, organism-based; details: time 60.0 day
# [9] = Tmax in Beagle dog at 10 nmol/kg, sc administered as single dose and measured upto 168 hrs by LC-MS/MS analysis; format: ADME, organism-based, Canis lupus familiaris; details: in vivo
# [10] = Cmax in Beagle dog at 10 nmol/kg, sc administered as single dose and measured upto 168 hrs by LC-MS/MS analysis; format: ADME, organism-based, Canis lupus familiaris; details: in vivo
# [11] = AUC (0 to 168 hrs) in Beagle dog at 10 nmol/kg, sc administered as single dose and measured upto 168 hrs by LC-MS/MS analysis; format: ADME, organism-based, Canis lupus familiaris; details: in vivo
# [12] = Elimination half life in Beagle dog at 10 nmol/kg, sc administered as single dose and measured upto 168 hrs by LC-MS/MS analysis; format: ADME, organism-based, Canis lupus familiaris; details: in vivo
# Mus musculus [13] = assay: Glucose-lowering effect in male ICR mouse assessed as reduction in plasma glucose AUC (0 to 72 hrs) at 30 nmol/kg, sc pretreated for 71 hrs followed by […] administration and measured after 60 mins by oral glucose tolerance test; format: functional, organism-based
# Mus musculus [14] = assay: Reduction in body weight in male ICR mouse at 30 nmol/kg, sc measured for 4 days; format: functional, organism-based; details: time 4.0 day
# Mus musculus [15] = assay: Anti-obesity activity in male C57/B16 mouse model of diet-induced obesity assessed as reduction in body weight at 30 nmol/kg, sc administered every 3 days for 46 days and measured every 3 days relative to control; format: functional, organism-based; parameters: scale not given: the % may be the effect or the level left; details: time 46.0 day
compound,measurement,setting,value
CC(C)C[C@H](NC(=O)[C@H](CC(C)C)NC(=O)[C@H](Cc1c[nH]c2ccccc12)NC(=O)[C@H](CCC(N)=O)NC(=O)[C@@H](NC(=O)[C@H](Cc1ccccc1)NC(=O)[C@H](CC(C)C)NC(=O)[C@H](CCCCN)NC(=O)[C@H](C)NC(=O)[C@H](C)NC(=O)[C@H](CCC(N)=O)NC(=O)[C@H](CCCCN)NC(=O)[C@H](CCC(=O)O)NC(=O)[C@H](CC(C)C)NC(=O)[C@H](CSCC(=O)NCCCC[C@H](NC(=O)CC[C@H](NC(=O)CC[C@H](NC(=O)COCCOCCNC(=O)CCCCCCCCCCCCCCCCC(=O)O)C(=O)O)C(=O)O)C(=O)O)NC(=O)[C@H](Cc1ccc(O)cc1)NC(=O)[C@H](CO)NC(=O)[C@H](Cc1ccc(O)cc1)NC(=O)[C@H](CC(=O)O)NC(=O)[C@H](CO)NC(=O)[C@@H](NC(=O)[C@H](Cc1ccccc1)NC(=O)[C@@H](NC(=O)CNC(=O)[C@H](CCC(=O)O)NC(=O)C(C)(C)NC(=O)[C@@H](N)Cc1ccc(O)cc1)[C@@H](C)O)[C@@H](C)O)C(C)C)C(=O)N[C@@H](C)C(=O)NCC(=O)NCC(=O)N1CCC[C@H]1C(=O)N[C@@H](CO)C(=O)N[C@@H](CO)C(=O)NCC(=O)N[C@@H](C)C(=O)N1CCC[C@H]1C(=O)N1CCC[C@H]1C(=O)N1CCC[C@H]1C(=O)N[C@@H](CO)C(N)=O (H-Y[Aib]EGTFTSDYSYC(X3)LEKQAAKLFVQWLLAGGPSSGAPPPS-NH2),EC50,[1],0.14 nM
same,EC50,[2],0.29 nM
same,Activity,Mus musculus [3],Active
CC(C)C[C@H](NC(=O)[C@H](CC(C)C)NC(=O)[C@H](Cc1c[nH]c2ccccc12)NC(=O)[C@H](CCC(N)=O)NC(=O)[C@@H](NC(=O)[C@H](Cc1ccccc1)NC(=O)[C@H](CC(C)C)NC(=O)[C@H](CSCC(=O)NCCCC[C@H](NC(=O)[C@@H](N)CCCCNC(=O)[C@@H](N)CCCCNC(=O)CC[C@H](NC(=O)CCCCCCCCCCCCCCCCCCC(=O)O)C(=O)O)C(=O)O)NC(=O)[C@H](C)NC(=O)[C@H](C)NC(=O)[C@H](CCC(N)=O)NC(=O)[C@H](CCCCN)NC(=O)[C@H](CCC(=O)O)NC(=O)[C@H](CC(C)C)NC(=O)[C@H](Cc1ccc(O)cc1)NC(=O)[C@H](Cc1ccc(O)cc1)NC(=O)[C@H](CO)NC(=O)[C@H](Cc1ccc(O)cc1)NC(=O)[C@H](CC(=O)O)NC(=O)[C@H](CO)NC(=O)[C@@H](NC(=O)[C@H](Cc1ccccc1)NC(=O)[C@@H](NC(=O)CNC(=O)[C@H](CCC(=O)O)NC(=O)C(C)(C)NC(=O)[C@@H](N)Cc1ccc(O)cc1)[C@@H](C)O)[C@@H](C)O)C(C)C)C(=O)N[C@@H](C)C(=O)NCC(=O)NCC(=O)N1CCC[C@H]1C(=O)N[C@@H](CO)C(=O)N[C@@H](CO)C(=O)NCC(=O)N[C@@H](C)C(=O)N1CCC[C@H]1C(=O)N1CCC[C@H]1C(=O)N1CCC[C@H]1C(=O)N[C@@H](CO)C(N)=O (H-Y[Aib]EGTFTSDYSYYLEKQAAC(X1)LFVQWLLAGGPSSGAPPPS-NH2),EC50,[1],0.06 nM
same,EC50,[2],0.18 nM
same,Activity,Mus musculus [4]; time 46 day,21%
same,Activity,Mus musculus [5],Active
same,Activity,Mus musculus [6],Active
same,Activity,Mus musculus [7],Active
same,Activity,Mus musculus [8],Active
same,Tmax,"[9]; Beagle, read-out: Tmax",18.7 h
same,Cmax,"[10]; Beagle, read-out: Cmax",215 ng/mL
same,AUC(0-t) at 168 h,[11]; Beagle,23700 ng·h/mL
same,half-life,"[12]; Beagle, read-out: beta t1/2 (converted)",78.3 h
same,Activity,Mus musculus [13],Active
same,Activity,Mus musculus [14],Active
TIRZEPATIDE [listing 1 of 2 here],Activity,Mus musculus [4]; time 46.0 day,21%
same,Activity,Mus musculus [5],Active
same,Activity,Mus musculus [6],Active
same,Activity,Mus musculus [7],Active
same,Activity,Mus musculus [14],Active
CC(C)C[C@H](NC(=O)[C@H](CC(C)C)NC(=O)[C@H](Cc1c[nH]c2ccccc12)NC(=O)[C@H](CCC(N)=O)NC(=O)[C@@H](NC(=O)[C@H](Cc1ccccc1)NC(=O)[C@H](CC(C)C)NC(=O)[C@H](CCCCN)NC(=O)[C@H](C)NC(=O)[C@H](C)NC(=O)[C@H](CCC(N)=O)NC(=O)[C@H](CSCC(=O)NCCCC[C@@H](NC(=O)CC[C@@H](NC(=O)CC[C@H](NC(=O)COCCOCCNC(=O)CCCCCCCCCCCCCCCCC(=O)O)C(=O)O)C(=O)O)C(=O)O)NC(=O)[C@H](CCC(=O)O)NC(=O)[C@H](CC(C)C)NC(=O)[C@H](Cc1ccc(O)cc1)NC(=O)[C@H](Cc1ccc(O)cc1)NC(=O)[C@H](CO)NC(=O)[C@H](Cc1ccc(O)cc1)NC(=O)[C@H](CC(=O)O)NC(=O)[C@H](CO)NC(=O)[C@@H](NC(=O)[C@H](Cc1ccccc1)NC(=O)[C@@H](NC(=O)CNC(=O)[C@H](CCC(=O)O)NC(=O)C(C)(C)NC(=O)[C@@H](N)Cc1ccc(O)cc1)[C@@H](C)O)[C@@H](C)O)C(C)C)C(=O)N[C@@H](C)C(=O)NCC(=O)NCC(=O)N1CCC[C@H]1C(=O)N[C@@H](CO)C(=O)N[C@@H](CO)C(=O)NCC(=O)N[C@@H](C)C(=O)N1CCC[C@H]1C(=O)N1CCC[C@H]1C(=O)N1CCC[C@H]1C(=O)N[C@@H](CO)C(N)=O (H-Y[Aib]EGTFTSDYSYYLEC(X2)QAAKLFVQWLLAGGPSSGAPPPS-NH2),EC50,[1]; cho,0.11 nM
same,EC50,[2]; cho,0.14 nM
same,Activity,Mus musculus [13],Active
same,Activity,Mus musculus [3],Active
SEMAGLUTIDE,Activity,Mus musculus [15],10%
same,Activity,Mus musculus [6],inactive
same,Activity,Mus musculus [7],Active
TIRZEPATIDE [listing 2 of 2 here],Tmax,"[9]; sc, 168 h",14 h
same,Cmax,"[10]; sc, 168 h",344 ng/mL
same,AUC,"[11]; sc, 168 h",35123 ng·h/mL
same,beta t1/2,"[12]; sc, 168 h",93.8 h
CC(C)C[C@H](NC(=O)[C@H](CC(C)C)NC(=O)[C@H](Cc1c[nH]c2ccccc12)NC(=O)[C@H](CCC(N)=O)NC(=O)[C@@H](NC(=O)[C@H](Cc1ccccc1)NC(=O)[C@H](CC(C)C)NC(=O)[C@H](CCCCN)NC(=O)[C@H](C)NC(=O)[C@H](C)NC(=O)[C@H](CCC(N)=O)NC(=O)[C@H](CSCC(=O)NCCCC[C@H](NC(=O)[C@@H](N)CCCCNC(=O)[C@@H](N)CCCCNC(=O)CC[C@H](NC(=O)CCCCCCCCCCCCCCCCCCC(=O)O)C(=O)O)C(=O)O)NC(=O)[C@H](CCC(=O)O)NC(=O)[C@H](CC(C)C)NC(=O)[C@H](Cc1ccc(O)cc1)NC(=O)[C@H](Cc1ccc(O)cc1)NC(=O)[C@H](CO)NC(=O)[C@H](Cc1ccc(O)cc1)NC(=O)[C@H](CC(=O)O)NC(=O)[C@H](CO)NC(=O)[C@@H](NC(=O)[C@H](Cc1ccccc1)NC(=O)[C@@H](NC(=O)CNC(=O)[C@H](CCC(=O)O)NC(=O)C(C)(C)NC(=O)[C@@H](N)Cc1ccc(O)cc1)[C@@H](C)O)[C@@H](C)O)C(C)C)C(=O)N[C@@H](C)C(=O)NCC(=O)NCC(=O)N1CCC[C@H]1C(=O)N[C@@H](CO)C(=O)N[C@@H](CO)C(=O)NCC(=O)N[C@@H](C)C(=O)N1CCC[C@H]1C(=O)N1CCC[C@H]1C(=O)N1CCC[C@H]1C(=O)N[C@@H](CO)C(N)=O (H-Y[Aib]EGTFTSDYSYYLEC(X1)QAAKLFVQWLLAGGPSSGAPPPS-NH2),EC50,[1],0.012 nM
same,EC50,[2],0.52 nM
same,Activity,Mus musculus [13],Active
